From patent US20240270741A1 (Cogent Biosciences, Inc., priority 2023, published 2024)

molecular target: FGFR2 (Homo sapiens, UniProt P21802); experiment: FGFR wild type enzyme assay (HTRF KinEASE-TK), FGFR2; conditions: Enz FGFR2 (nM), FGFR2 wild type enzyme
Sequence (P21802 399-821 limits assumed): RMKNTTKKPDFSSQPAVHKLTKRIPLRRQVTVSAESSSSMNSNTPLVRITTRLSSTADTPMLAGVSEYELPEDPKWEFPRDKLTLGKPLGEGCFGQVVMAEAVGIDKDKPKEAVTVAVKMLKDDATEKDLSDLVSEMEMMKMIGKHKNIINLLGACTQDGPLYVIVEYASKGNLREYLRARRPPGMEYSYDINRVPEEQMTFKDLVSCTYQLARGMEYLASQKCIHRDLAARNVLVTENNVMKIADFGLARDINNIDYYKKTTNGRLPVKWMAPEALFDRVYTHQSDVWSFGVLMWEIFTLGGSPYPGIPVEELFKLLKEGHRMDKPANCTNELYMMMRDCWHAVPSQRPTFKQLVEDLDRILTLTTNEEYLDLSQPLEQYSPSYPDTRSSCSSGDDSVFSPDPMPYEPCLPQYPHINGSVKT

Row | IC50 | SMILES
1 | 5 nM | CC(=O)N1CCO[C@H](Cn2ncc(-c3cc(Sc4ncccc4F)c4c(C#N)cnn4c3)c2C)C1 [Example 234, (S)-6-(1-((4-acetylmorpholin-2-yl)methyl)-5-methyl-1H-pyrazol-4-yl)-4-((3-fluoropyridin-2-yl)thio)pyrazolo[1,5-a]pyridine-3-carbonitrile]
2 | 4 nM | Cc1c(-c2cc(Sc3ncccc3F)c3c(C#N)cnn3c2)cnn1C[C@H]1[C@@H]2CCC[C@@H]21 [Example 235, 6-(1-(((1R,5S,6r)-bicyclo[3.1.0]hexan-6-yl)methyl)-5-methyl-1H-pyrazol-4-yl)-4-((3-fluoropyridin-2-yl)thio)pyrazolo[1,5-a]pyridine-3-carbonitrile]
3 | 1 nM | Cc1c(-c2cc(Sc3ncccc3F)c3c(C#N)cnn3c2)cnn1C[C@@H]1[C@@H]2CNC[C@@H]21 [Example 236, 6-(1-(((1R,5S,6s)-3-azabicyclo[3.1.0]hexan-6-yl)methyl)-5-methyl-1H-pyrazol-4-yl)-4-((3-fluoropyridin-2-yl)thio)pyrazolo[1,5-a]pyridine-3-carbonitrile]
4 | 3 nM | CC(=O)N1C[C@@H]2[C@H](C1)[C@H]2Cn1ncc(-c2cc(Sc3ncccc3F)c3c(C#N)cnn3c2)c1C [Example 237, 6-(1-(((1R,5S,6r)-3-acetyl-3-azabicyclo[3.1.0]hexan-6-yl)methyl)-5-methyl-1H-pyrazol-4-yl)-4-((3-fluoropyridin-2-yl)thio)pyrazolo[1,5-a]pyridine-3-carbonitrile]
5 | 3 nM | CC(=O)N1C[C@@H]2[C@H](C1)[C@@H]2Cn1ncc(-c2cc(Sc3ncccc3F)c3c(C#N)cnn3c2)c1C [Example 238, 6-(1-(((1R,5S,6s)-3-acetyl-3-azabicyclo[3.1.0]hexan-6-yl)methyl)-5-methyl-1H-pyrazol-4-yl)-4-((3-fluoropyridin-2-yl)thio)pyrazolo[1,5-a]pyridine-3-carbonitrile]
6 | 3 nM | Cc1c(-c2cc(Sc3ncccc3F)c3c(C#N)cnn3c2)cnn1C[C@H]1CC[C@H](O)CC1 [Example 239, 4-((3-fluoropyridin-2-yl)thio)-6-(1-(((1r,4r)-4-hydroxycyclohexyl)methyl)-5-methyl-1H-pyrazol-4-yl)pyrazolo[1,5-a]pyridine-3-carbonitrile]
7 | 2 nM | Cc1c(-c2cc(Sc3ncccc3F)c3c(C#N)cnn3c2)cnn1C1CCN(Cc2ccccn2)CC1 [Example 240, 4-((3-fluoropyridin-2-yl)thio)-6-(5-methyl-1-(1-(pyridin-2-ylmethyl)piperidin-4-yl)-1H-pyrazol-4-yl)pyrazolo[1,5-a]pyridine-3-carbonitrile]
8 | 1 nM | Cc1c(-c2cc(Sc3ncccc3F)c3c(C#N)cnn3c2)cnn1[C@H]1CC[C@@H](N(C)CCO)CC1 [Example 241, 4-((3-fluoropyridin-2-yl)thio)-6-(1-((1s,4s)-4-((2-hydroxyethyl)(methyl)ami-no)cyclohexyl)-5-methyl-1H-pyrazol-4-yl)pyrazolo[1,5-a]pyridine-3-carbonitrile]
9 | 1 nM | CCN[C@H]1CC[C@@H](n2ncc(-c3cc(Sc4ncccc4F)c4c(C#N)cnn4c3)c2C)CC1 [Example 242, 6-(1-((1s,4s)-4-(ethylamino)cyclohexyl)-5-methyl-1H-pyrazol-4-yl)-4-((3-fluoropyridin-2-yl)thio)pyrazolo[1,5-a]pyridine-3-carbonitrile]
10 | 1 nM | Cc1c(-c2cc(Sc3ncccc3F)c3c(C#N)cnn3c2)cnn1[C@H]1CC[C@@H](NC(C)C)CC1 [Example 243, 4-((3-fluoropyridin-2-yl)thio)-6-(1-((1s,4s)-4-(isopropylamino)cyclohex-yl)-5-methyl-1H-pyrazol-4-yl)pyrazolo[1,5-a]pyridine-3-carbonitrile]
11 | 2.5 nM | Cc1c(-c2cc(Sc3ncccc3F)c3c(C#N)cnn3c2)cnn1[C@H]1CC[C@@H](NCC(F)(F)F)CC1 [Example 244, 4-((3-fluoropyridin-2-yl)thio)-6-(5-methyl-1-((1s,4s)-4-((2,2,2-trifluoroethyl)amino)cyclo-hexyl)-1H-pyrazol-4-yl)pyrazolo[1,5-a]pyridine-3-carbonitrile]
12 | 2.5 nM | CC(=O)N1C[C@H]2C[C@H](n3ncc(-c4cc(Sc5ncccc5F)c5c(C#N)cnn5c4)c3C)C[C@H]2C1 [Example 245, 6-(1-((3aR,5s,6aS)-2-acetyloctahydrocylcopenta [c]pyrrol-5-yl)-5-methyl-1H-pyrazol-4-yl)-4-((3-fluoropyridin-2-yl)thio)pyrazolo[1,5-a]pyridine-3-carbonitrile]
13 | 4 nM | Cc1c(-c2cc(Sc3ncccc3F)c3c(C#N)cnn3c2)cnn1[C@H]1C[C@H](CO)C1 [Example 246, 4-((3-fluoropyridin-2-yl)thio)-6-(1-((1r,3r)-3-(hydroxymethyl)cyclobutyl)-5-methyl-1H-pyrazol-4-yl)pyrazolo[1,5-a]pyridine-3-carbonitrile]
14 | 1 nM | CN(C)[C@H]1CC[C@@H](n2cc(-c3cc(Sc4ncccc4F)c4c(C#N)cnn4c3)cn2)CC1 [Example 247, 6-(1-((1s,4s)-4-(dimethylamino)cyclohex-yl)-1H-pyrazol-4-yl)-4-((3-fluoropyridin-2-yl)thio)pyrazolo[1,5-a]pyridine-3-carbonitrile]
15 | 2 nM | CC(=O)N(C)[C@H]1CC[C@@H](n2ncc(-c3cc(Sc4ncccc4F)c4c(C#N)cnn4c3)c2C)CC1 [Example 248, N-((1s,4s)-4-(4-(3-cyano-4-((3-fluoropyridin-2-yl)thio)pyrazolo[1,5-a]pyridin-6-yl)-5-methyl-1H-pyrazol-1-yl)cyclohexyl)-N-methylacetamide]
16 | 3 nM | Cc1c(-c2cc(Sc3ncccc3F)c3c(C#N)cnn3c2)cnn1[C@H]1CC[C@@H](N(C)S(C)(=O)=O)CC1 [Example 249, N-((1s,4s)-4-(4-(3-cyano-4-((3-fluoropyridin-2-yl)thio)pyrazolo[1,5-a]pyridin-6-yl)-5-methyl-1H-pyrazol-1-yl)cyclohexyl)-N-methylmethanesulfonamide]
17 | 0.4 nM | CCN[C@H]1CC[C@@H](n2ncc(-c3cc(Sc4ccccc4C#N)c4c(C#N)cnn4c3)c2C)CC1 [Example 250, 4-((2-cyanophenyl)thio)-6-(1-((1s,4s)-4-(ethylamino)cylcohexyl)-5-methyl-1H-pyrazol-4-yl)pyrazolo[1,5-a]pyridine-3-carbonitrile]
18 | 0.5 nM | Cc1c(-c2cc(Sc3ccccc3C#N)c3c(C#N)cnn3c2)cnn1[C@H]1CC[C@@H](NC(C)C)CC1 [Example 251]
19 | 1 nM | Cc1c(-c2cc(Sc3ncccc3F)c3c(C#N)cnn3c2)cnn1C1CCNC(C)C1 (centres unmarked) [Example 252, 4-((3-fluoropyridin-2-yl)thio)-6-(5-methyl-1-(2-methylpiperidin-4-yl)-1H-pyrazol-4-yl)pyrazolo[1,5-a]pyridine-3-carbonitrile]
20 | 0.6 nM | Cc1c(-c2cc(Sc3ncccc3F)c3c(C#N)cnn3c2)cnn1[C@H]1CC[C@@H](NCC2(C)CC2)CC1 [Example 253, 4-((3-fluoropyridin-2-yl)thio)-6-(5-methyl-1-((1s,4s)-4-(((1-methylcyclopropyl)methyl)amino)cyclohexyl)-1H-pyrazol-4-yl)pyrazolo[1,5-a]pyridine-3-carbonitrile]
21 | 1 nM | Cc1c(-c2cc(Sc3ncccc3F)c3c(C#N)cnn3c2)cnn1[C@H]1CC[C@@H](N(C)C(=O)C(C)(C)N)CC1 [Example 254, 2-amino-N-((1s,4s)-4-(4-(3-cyano-4-((3-fluoropyridin-2-yl)thio)pyrazolo[1,5-a]pyridin-6-yl)-5-methyl-1H-pyrazol-1-y)cyclohexyl)-N,2-dimethylpropanamide]
22 | 0.3 nM | CN[C@H]1CC[C@@H](n2ncc(-c3cc(Sc4ccc(F)cc4C#N)c4c(C#N)cnn4c3)c2C)CC1 [Example 255, 4-((2-cyano-4-fluorophenyl)thio)-6-(5-methyl-1-((1s,4s)-4-(methylamino)cyclohexyl)-1H-pyrazol-4-yl)pyrazolo[1,5-a]pyridine-3-carbonitrile]
23 | 1 nM | CCN(C)[C@H]1CC[C@@H](n2ncc(-c3cc(Sc4ccccc4C#N)c4c(C#N)cnn4c3)c2C)CC1 [Example 256, 4-((2-cyanophenyl)thio)-6-(1-((1s,4s)-4-(ethyl(methyl)amino)cyclo-hexyl)-5-methyl-1H-pyrazol-4-yl)pyrazolo[1,5-a]pyridine-3-carbonitrile]
24 | 0.5 nM | Cc1c(-c2cc(Sc3ccccc3C#N)c3c(C#N)cnn3c2)cnn1[C@H]1CC[C@@H](NCC2(C)CC2)CC1 [Example 257, 4-((2-cyanophenyl)thio)-6-(5-methyl-1-((1s,4s)-4-(((1-methylcyclopropyl)methyl)amino)cyclohexyl)-1H-pyrazol-4-yl)pyrazolo[1,5-a]pyridine-3-carbonitrile]
25 | 2 nM | N#Cc1ccccc1Sc1cc(-c2cnn(CC(F)(F)F)c2)cn2ncc(C#N)c12 [Example 258]
26 | 1.5 nM | CC(=O)N1C[C@H]2C[C@@H](n3ncc(-c4cc(Sc5ncccc5F)c5c(C#N)cnn5c4)c3C)C[C@H]2C1 [Example 259, 6-(1-((3aR,5r,6aS)-2-acetyloctahydrocyclopenta [c]pyrrol-5-yl)-5-methyl-1H-pyrazol-4-yl)-4-((3-fluoropyridin-2-yl)thio)pyrazolo[1,5-a]pyridine-3-carbonitrile]
27 | 1 nM | Cc1c(-c2cc(Sc3ccccc3C#N)c3c(C#N)cnn3c2)cnn1[C@H]1CC[C@@](C)(O)CC1 [Example 260, 4-(2-cyanophenyl)sulfanyl-6-[1-(4-hydroxy-4-methyl-cyclohexyl)-5-methyl-pyrazol-4-yl]pyrazolo[1,5-a]pyridine-3-carbonitrile]
28 | 0.5 nM | Cc1c(-c2cc(Sc3ccccc3C#N)c3c(C#N)cnn3c2)cnn1[C@H]1CC[C@](C)(O)CC1 [Example 261, 4-((2-cyanophenyl)thio)-6-(1-((1r,4r)-4-hydroxy-4-methylcyclohexyl)-5-methyl-1H-pyrazol-4-yl)pyrazolo[1,5-a]pyridine-3-carbonitrile]
29 | 3 nM | CC(=O)N1[C@@H]2CC[C@H]1C[C@@H](n1ncc(-c3cc(Sc4ncccc4F)c4c(C#N)cnn4c3)c1C)C2 [Example 262, 6-(1-((1R,3r,5S)-8-acetyl-8-azabicyclo[3.2.1]octan-3-yl)-5-methyl-1H-pyrazol-4-yl)-4-((3-fluoropyridin-2-yl)thio)pyrazolo[1,5-a]pyridine-3-carbonitrile]
